Like-named read-outs stand apart in the source and are kept apart here. Where a SMILES comes first, the peptide text is derived from it. Bridges are numbered along the chain shown (N, C = ends). [ ]: non-standard residue; d: D form. The star is where a group is joined. DOTA = O=C(O)CN1CCN(CC(=O)O)CCN(CC(=O)*)CCN(CC(=O)O)CC1; Tyr(3-Cl) = N[C@@H](Cc1ccc(O)c(Cl)c1)C(=O)O; Pro(cis-4-F) = O=C(O)[C@@H]1C[C@H](F)CN1; Phe(4-NH2) = Nc1ccc(C[C@H](N)C(=O)O)cc1; Phe(2-Cl) = N[C@@H](Cc1ccccc1Cl)C(=O)O; Dopa = N[C@@H](Cc1ccc(O)c(O)c1)C(=O)O; Hyp = O=C(O)[C@@H]1C[C@@H](O)CN1; 4Pal = N[C@@H](Cc1ccncc1)C(=O)O; Pentanoyl(4-Me) = CC(C)CCC(=O)*; Cit = NC(=O)NCCC[C@H](N)C(=O)O; Gly(cPr) = N[C@H](C(=O)O)C1CC1; Butoxycarbonyl = CCCCOC(=O)*; hCys = N[C@@H](CCS)C(=O)O; Dab = NCC[C@H](N)C(=O)O; Nva = CCC[C@H](N)C(=O)O; Abu = CC[C@H](N)C(=O)O; Hexanoyl = CCCCCC(=O)*; Pentanoyl = CCCCC(=O)*
Tests used:
[1] = target: T1, uPAR-expressing HEC-265 human endometrial adenocarcinoma cells (Homo sapiens, UniProt Q03405); experiment: Competitive FACS binding assay; conditions: pIC50 category of FACS binding
T1 construct: Cell surface uPAR-expressing HEC-265 human endometrial adenocarcinoma cells; host or cells: HEC-265
T1 sequence (Q03405 23-335): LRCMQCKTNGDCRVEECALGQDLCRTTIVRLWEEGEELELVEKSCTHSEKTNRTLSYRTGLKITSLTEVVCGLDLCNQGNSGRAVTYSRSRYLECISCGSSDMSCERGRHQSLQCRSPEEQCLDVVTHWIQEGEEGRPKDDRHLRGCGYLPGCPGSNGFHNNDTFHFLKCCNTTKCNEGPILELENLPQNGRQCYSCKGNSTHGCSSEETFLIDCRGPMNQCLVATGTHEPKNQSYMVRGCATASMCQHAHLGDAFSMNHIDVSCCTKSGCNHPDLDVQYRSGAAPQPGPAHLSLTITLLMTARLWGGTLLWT
Method in brief: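 HEC-265 cells incubated 1 h at 4 °C with 10 nM biotinylated uPAR peptide tracer plus increasing test compound, then stained with APC-streptavidin on ice. Median APC fluorescence by flow cytometry; 4PL fit gives pIC50.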

[2] = target: T2, human uPAR (uPAR-Fc) (Homo sapiens, UniProt Q03405); experiment: Surface plasmon resonance (SPR) assay, single cycle kinetics; format: binding; conditions: pKD category for uPAR SPR activity assay, uPAR-Fc on Protein A-Chip, 25°C, read-out: pKD CAT (converted)
T2 construct: comprising amino acids Leu23-Arg303 according to UniProt entry Q03405.1; purchased R&D Systems 10378-UK-100
T2 sequence (Q03405 23-303): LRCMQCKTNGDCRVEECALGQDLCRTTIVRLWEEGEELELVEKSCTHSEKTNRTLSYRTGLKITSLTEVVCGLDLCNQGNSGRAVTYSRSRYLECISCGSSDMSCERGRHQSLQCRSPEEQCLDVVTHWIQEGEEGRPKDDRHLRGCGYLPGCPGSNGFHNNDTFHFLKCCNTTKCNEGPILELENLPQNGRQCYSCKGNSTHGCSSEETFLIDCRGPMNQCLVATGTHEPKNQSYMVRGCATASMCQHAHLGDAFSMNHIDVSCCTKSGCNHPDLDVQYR
Method in brief: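 uPAR-Fc (Leu23-Arg303 extracellular domains, human IgG1 Fc) captured on Protein A chip to ~2000 RU; single-cycle kinetics at 25°C in HEPES running buffer pH 7.4 with 0.1% DMSO. KD from double-referenced sensorgrams fitted to 1:1 Langmuir model, reported as pKD.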

IC50 [1] [nM]	Kd ([2]; single cycle kinetics) [nM]	Kd [2] [nM]	SMILES
≤ 10	< 1.58		CCCCC(=O)N[C@H]1CSSC[C@@H](C(N)=O)NC(=O)[C@H](CCC)NC(=O)[C@H]([C@@H](C)CC)NC(=O)[C@@H]2C[C@@H](O)CN2C(=O)[C@@H]2CCCN2C(=O)[C@H](Cc2ccccc2Cl)NC(=O)[C@H](Cc2ccc(O)cc2)NC(=O)[C@H](CCCCNC(=O)CN2CCN(CC(=O)O)CCN(CC(=O)O)CCN(CC(=O)O)CC2)NC(=O)[C@H](CCCNC(N)=O)NC1=O [UPAR-450, Pent-[Cys-Cit-Lys(DOTA)-Tyr-Ocf-Pro-Hyp-Ile-Nva-Cys]-NH2] (Pentanoyl-C[Cit]K(DOTA)Y[Phe(2-Cl)]P[Hyp]I[Nva]C-NH2; disulfide 1-10)
≤ 10	< 1.58		CC[C@H](C)[C@@H]1NC(=O)[C@H](C)NC(=O)[C@@H]2CCCN2C(=O)[C@H](Cc2ccccc2)NC(=O)[C@H](Cc2ccc(O)cc2)NC(=O)[C@H](CCC(N)=O)NC(=O)[C@H](CCCNC(=N)N)NC(=O)[C@@H](NC(=O)[C@H](CC(C)C)NC(C)=O)CSSC[C@@H](C(N)=O)NC(=O)[C@H](CC(C)C)NC1=O [UPAR-381, Ac-Leu-[Cys-Arg-Gln-Tyr-Phe-Pro-Ala-Ile-Leu-Cys]-NH2] (Ac-LCRQYFPAILC-NH2; disulfide 2-11)
≤ 10		< 1.58	CC[C@H](C)[C@@H]1NC(=O)[C@@H](C)NC(=O)[C@@H]2CCCN2C(=O)[C@H](Cc2ccccc2)NC(=O)[C@H](Cc2ccc(O)c(Cl)c2)NC(=O)[C@H](CCC(N)=O)NC(=O)[C@H](CCCNC(N)=O)NC(=O)[C@@H](NC(=O)CCC(C)C)CSSC[C@@H](C(N)=O)NC(=O)[C@H](CC(C)C)NC1=O [UPAR-188, iHex-[Cys-Cit-Gln-Mcy-Phe-Pro-ala-Ile-Leu-Cys]-NH2] ({Pentanoyl(4-Me)}-C[Cit]Q[Tyr(3-Cl)]FP[dA]ILC-NH2; disulfide 1-10)
≥ 126		> 100	CC(C)CCC(=O)N[C@H]1CSSC[C@@H](C(N)=O)NC(=O)[C@H](CC(C)C)NC(=O)[C@H](C2CC2)NC(=O)[C@@H](C)NC(=O)[C@@H]2CCCN2C(=O)[C@H](Cc2ccccc2)NC(=O)[C@H](Cc2ccc(O)cc2)NC(=O)[C@H](CCC(N)=O)NC(=O)[C@H](CCCNC(N)=O)NC1=O [UPAR-187, iHex-[Cys-Cit-Gln-Tyr-Phe-Pro-ala-Cpa-Leu-Cys]-NH2] ({Pentanoyl(4-Me)}-C[Cit]QYFP[dA][Gly(cPr)]LC-NH2; disulfide 1-10)
≤ 10		< 1.58	CC[C@H](C)[C@@H]1NC(=O)[C@@H](C)NC(=O)[C@@H]2CCCN2C(=O)[C@H](Cc2ccccc2)NC(=O)[C@H](Cc2ccc(O)cc2)NC(=O)[C@H](CCCNC(=N)N)NC(=O)[C@H](CCCNC(N)=O)NC(=O)[C@@H](NC(=O)CCC(C)C)CSSC[C@@H](C(N)=O)NC(=O)[C@H](CC(C)C)NC1=O [UPAR-160, iHex-[Cys-Cit-Arg-Tyr-Phe-Pro-ala-Ile-Leu-Cys]-NH2] ({Pentanoyl(4-Me)}-C[Cit]RYFP[dA]ILC-NH2; disulfide 1-10)
12.6 to 31.6		1.58 to 10	CCCCC(=O)N[C@H]1CSSC[C@@H](C(N)=O)NC(=O)[C@H](CCC)NC(=O)[C@H]([C@@H](C)CC)NC(=O)[C@@H]2C[C@@H](O)CN2C(=O)[C@@H]2CCCN2C(=O)[C@H](CC(C)C)NC(=O)[C@H](Cc2ccc(O)cc2)NC(=O)[C@H](CCC(N)=O)NC(=O)[C@H](CCCNC(=N)N)NC1=O [UPAR-197, Pent-[Cys-Arg-Gln-Tyr-Leu-Pro-Hyp-Ile-Nva-Cys]-NH2] (Pentanoyl-CRQYLP[Hyp]I[Nva]C-NH2; disulfide 1-10)
≤ 10		< 1.58	CC[C@H](C)[C@@H]1NC(=O)[C@@H](C)NC(=O)[C@@H]2CCCN2C(=O)[C@H](Cc2ccccc2)NC(=O)[C@H](Cc2ccc(N)cc2)NC(=O)[C@H](CCC(N)=O)NC(=O)[C@H](CCCNC(N)=O)NC(=O)[C@@H](NC(=O)CCC(C)C)CSSC[C@@H](C(N)=O)NC(=O)[C@H](CC(C)C)NC1=O [UPAR-314, iHex-[Cys-Cit-Gln-Aph-Phe-Pro-ala-Ile-Leu-Cys]-NH2] ({Pentanoyl(4-Me)}-C[Cit]Q[Phe(4-NH2)]FP[dA]ILC-NH2; disulfide 1-10)
≤ 10	< 1.58		CCCCC(=O)N[C@H]1CSSC[C@@H](C(N)=O)NC(=O)[C@H](CCC)NC(=O)[C@H]([C@@H](C)CC)NC(=O)[C@@H](Cc2ccc(O)cc2)NC(=O)[C@@H]2CCCN2C(=O)[C@H](Cc2ccccc2)NC(=O)[C@H](Cc2ccc(O)cc2)NC(=O)[C@H](CCC(N)=O)NC(=O)[C@H](CCCNC(=N)N)NC1=O [UPAR-465, Pent-[Cys-Arg-Gln-Tyr-Phe-Pro-tyr-Ile-Nva-Cys]-NH2] (Pentanoyl-CRQYFP[dY]I[Nva]C-NH2; disulfide 1-10)
≥ 126	10 to 100		CC[C@H](C)[C@@H]1NC(=O)[C@@H](C)NC(=O)[C@@H]2CCCN2C(=O)[C@H](Cc2ccccc2)NC(=O)[C@H](Cc2ccc(O)cc2)NC(=O)[C@H](CCC(N)=O)NC(=O)[C@@H](CCCNC(=N)N)NC(=O)[C@@H](NC(=O)CCC(C)C)CSSC[C@@H](C(N)=O)NC(=O)[C@H](CC(C)C)NC1=O [UPAR-467, iHex-[Cys-arg-Gln-Tyr-Phe-Pro-ala-Ile-Leu-Cys]-NH2] ({Pentanoyl(4-Me)}-C[dR]QYFP[dA]ILC-NH2; disulfide 1-10)
≤ 10		1.58 to 10	CCCCC(=O)N[C@H]1CSSCC[C@@H](C(N)=O)NC(=O)[C@H](CCC)NC(=O)[C@H]([C@@H](C)CC)NC(=O)[C@@H]2C[C@@H](O)CN2C(=O)[C@@H]2CCCN2C(=O)[C@H](Cc2ccccc2)NC(=O)[C@H](Cc2ccc(O)cc2)NC(=O)[C@H](CCC(N)=O)NC(=O)[C@H](CCCNC(=N)N)NC1=O [UPAR-213, Pent-[Cys-Arg-Gln-Tyr-Phe-Pro-Hyp-Ile-Nva-Hcy]-NH2] (Pentanoyl-CRQYFP[Hyp]I[Nva][hCys]-NH2; disulfide 1-10)
≤ 10		< 1.58	CCCCCC(=O)N[C@@H](CCCCNC(=O)CN1CCN(CC(=O)O)CCN(CC(=O)O)CCN(CC(=O)O)CC1)C(=O)N[C@@H](CC(C)C)C(=O)N[C@H]1CSSC[C@@H](C(N)=O)NC(=O)[C@H](CC(C)C)NC(=O)[C@H]([C@@H](C)CC)NC(=O)[C@H](C)NC(=O)[C@@H]2CCCN2C(=O)[C@H](Cc2ccccc2)NC(=O)[C@H](Cc2ccc(O)cc2)NC(=O)[C@H](CCSC)NC(=O)[C@H](CCCNC(=N)N)NC1=O [UPAR-140, Hex-Lys(DOTA)-Leu-[Cys-Arg-Met-Tyr-Phe-Pro-Ala-Ile-Leu-Cys]-NH2] (Hexanoyl-K(DOTA)LCRMYFPAILC-NH2; disulfide 3-12)
39.8 to 100		10 to 100	CC[C@H](C)[C@@H]1NC(=O)[C@@H](C)NC(=O)[C@@H]2CCCN2C(=O)[C@H](Cc2ccccc2)NC(=O)[C@H](Cc2ccc(O)cc2)NC(=O)[C@H](CCC(N)=O)NC(=O)[C@@H](C)NC(=O)[C@@H](NC(=O)CCC(C)C)CSSC[C@@H](C(N)=O)NC(=O)[C@H](CC(C)C)NC1=O [UPAR-231, iHex-[Cys-ala-Gln-Tyr-Phe-Pro-ala-Ile-Leu-Cys]-NH2] ({Pentanoyl(4-Me)}-C[dA]QYFP[dA]ILC-NH2; disulfide 1-10)
≥ 126		> 100	CC[C@H](C)[C@@H]1NC(=O)[C@@H](C)NC(=O)[C@@H]2CCCN2C(=O)[C@H](Cc2ccccc2)NC(=O)[C@H](Cc2ccc(O)cc2)NC(=O)[C@H](CCC(N)=O)NC(=O)[C@H](CCCNC(N)=O)NC(=O)[C@@H](NC(C)=O)CSSC[C@@H](C(N)=O)NC(=O)[C@H](CC(C)C)NC1=O [UPAR-243, Ac-[Cys-Cit-Gln-Tyr-Phe-Pro-ala-Ile-Leu-Cys]-NH2] (Ac-C[Cit]QYFP[dA]ILC-NH2; disulfide 1-10)
≤ 10	1.58 to 10		CC[C@@H]1NC(=O)[C@H]([C@@H](C)CC)NC(=O)[C@@H](C)NC(=O)[C@@H]2CCCN2C(=O)[C@H](Cc2ccccc2)NC(=O)[C@H](Cc2ccc(O)cc2)NC(=O)[C@H](CCC(N)=O)NC(=O)[C@H](CCCNC(N)=O)NC(=O)[C@@H](NC(=O)CCC(C)C)CSSC[C@@H](C(N)=O)NC1=O [UPAR-451, iHex-[Cys-Cit-Gln-Tyr-Phe-Pro-ala-Ile-Abu-Cys]-NH2] ({Pentanoyl(4-Me)}-C[Cit]QYFP[dA]I[Abu]C-NH2; disulfide 1-10)
≤ 10		< 1.58	CCCCC(=O)N[C@H]1CSSC[C@@H](C(N)=O)NC(=O)[C@H](CCC)NC(=O)[C@H]([C@@H](C)CC)NC(=O)[C@@H]2C[C@@H](O)CN2C(=O)[C@@H]2CCCN2C(=O)[C@H](Cc2ccccc2)NC(=O)[C@H](Cc2ccncc2)NC(=O)[C@H](CCCCNC(=O)CN2CCN(CC(=O)O)CCN(CC(=O)O)CCN(CC(=O)O)CC2)NC(=O)[C@H](CCCNC(N)=O)NC1=O [UPAR-336, Pent-[Cys-Cit-Lys(DOTA)-Ppa-Phe-Pro-Hyp-Ile-Nva-Cys]-NH2] (Pentanoyl-C[Cit]K(DOTA)[4Pal]FP[Hyp]I[Nva]C-NH2; disulfide 1-10)

SMILES	IC50 [1] [nM]	Kd ([2]; single cycle kinetics) [nM]	Kd [2] [nM]
CCCCOC(=O)N[C@H]1CSSC[C@@H](C(N)=O)NC(=O)[C@H](CCC)NC(=O)[C@H]([C@@H](C)CC)NC(=O)[C@@H]2C[C@@H](O)CN2C(=O)[C@@H]2C[C@H](F)CN2C(=O)[C@H](Cc2ccccc2)NC(=O)[C@H](Cc2ccc(O)c(O)c2)NC(=O)[C@H](CCNC(=O)CN2CCN(CC(=O)O)CCN(CC(=O)O)CCN(CC(=O)O)CC2)NC(=O)[C@H]([C@@H](C)O)NC1=O [UPAR-456, Butoc-[Cys-Thr-Dab(DOTA)-Dopa-Phe-4Cfp-Hyp-Ile-Nva-Cys]-NH2] (Butoxycarbonyl-CT[Dab](DOTA)[Dopa]F[Pro(cis-4-F)][Hyp]I[Nva]C-NH2; disulfide 1-10)	≤ 10	< 1.58	

— patent publication EP4610269A1, “UROKINASE PLASMINOGEN ACTIVATOR SURFACE RECEPTOR (UPAR) LIGANDS FOR DIAGNOSTIC OR THERAPEUTIC USE” (3B Pharmaceuticals GmbH, priority 2024, dated 2025)
